In patent publication US6489487B1, “Triazolone derivatives, use thereof, and intermediates therefor” (Sumitomo Chemical Company, Limited, priority 1998, dated 2002) one finds melting point data, which are given here for four compounds.

The compound `Cc1ccc(-c2ccccc2)cc1Cn1c(Cl)nn(C)c1=O` [Compound 7, 5-chloro-2-methyl-4-(2-methyl-5-phenylbenzyl)-2,4-dihydro-3H-1,2,4-triazol-3-one] yielded a melting point of 115.7 °C.

Regarding `CSc1nn(C)c(=O)n1Cc1cc(-c2ccccc2)ccc1C` [Compound 8, 5-methylthio-2-methyl-4-(2-methyl-5-phenylbenzyl)-2,4-dihydro-3H-1,2,4-triazol-3-one], the melting point was 95.6 °C.

`Cc1ccc(-c2ccccc2)cc1Cn1c(C)nn(C)c1=O` [Compound 10, 2,5-dimethyl-4-(2-methyl-5-phenylbenzyl)-2,4-dihydro-3H-1,2,4-triazol-3-one] displayed a melting point of 138.9 °C.

Compound `Cc1ccc(-c2ccccc2)cc1Cn1c(C2CC2)nn(C)c1=O` [Compound 538, 5-cyclopropyl-2-methyl-4-(2-methyl-5-phenylbenzyl)-2,4-dihydro-3H-1,2,4-triazol-3-one] registered a melting point of 102.4 °C.
